In ChEMBL document CHEMBL1177755, “Bioactive xanthones from the stems of Cratoxylum formosum ssp. pruniflorum” (J Nat Prod, 2010):
Active and inactive are the calls of the source. No cut-off for these calls is given here.

Columns and labels:
CV-1 [1] = assay: Inhibition of RXRalpha transcriptional activity in african green monkey CV1 cells co-expressing with TREpal-tkCAT at 10 uM by reporter gene assay; assay type: cell-based; details: Chlorocebus aethiops
CV-1 [2] = assay: Inhibition of RXRalpha transcriptional activity in african green monkey CV1 cells co-expressing with TREpal-tkCAT by reporter gene assay; assay type: cell-based; details: Chlorocebus aethiops

Structure (SMILES) | Activity (CV-1 [1]) | Activity (CV-1 [2])
COc1ccc(O)c2c(=O)c3cc(O)ccc3oc12 | Active | 
CC(C)=CCC/C(C)=C/Cc1c(O)c(CC=C(C)C)c(O)c2c(=O)c3cc(O)c(O)cc3oc12 | Active | 
COc1c(O)ccc2oc3c(O)ccc(O)c3c(=O)c12 | Active | Dose-dependent effect
COc1cc2oc3cc(O)c(O)c(CCC(C)(C)O)c3c(=O)c2c(O)c1CC=C(C)C | Active | Dose-dependent effect
CC(C)=CCC/C(C)=C/Cc1c(O)c(O)cc2c(=O)c3c(O)c(CC=C(C)C)c(O)cc3oc12 | Active | 
COc1c(O)ccc2oc3cccc(O)c3c(=O)c12 | Active | Dose-dependent effect
COc1cc2c(=O)c3c(O)cc(O)cc3oc2cc1O | Active | 
COc1cc2oc3cc(O)c(O)c(C/C=C(\C)CCC=C(C)C)c3c(=O)c2c(O)c1C/C=C(\C)CCC=C(C)C | Active | 
CC(C)=CCc1c(O)c(CC=C(C)C)c2oc3cc(O)c(O)cc3c(=O)c2c1O | Active | 
